Measurements from PubChem BioAssay AID2305 (GlaxoSmithKline (GSK), 2010).

These compounds were tested on P. falciparum 3D7 growth, pLDH absorbance (assay: P. falciparum 3D7 growth inhibition, dose response, strain 3D7 (AID 2305)).

SMILES | IC50 [nM]
COc1cc2nc(N3CCC(CNC(=O)c4ccc(C(C)=O)cc4)CC3)nc(N)c2cc1OC | 1120
CCOC(=O)CCCOc1c(OC)cc(Cc2cnc(N)nc2N)cc1OC | 780
O=C(NCCc1ccccc1)N(Cc1ccccc1-c1cccc(CNCCc2ccccc2)c1)C1CCN(Cc2ccccc2)CC1 | 620
CCCCCCCC1CC(CC(=O)Nc2ccnc3ccc(OC)cc23)CN1C(=O)OC(C)(C)C (stereo not given) | 710
Cc1cccc(C(=O)Nc2ccnc(N3CCC(N(C)Cc4ccccc4)CC3)c2)c1 | 960
Cc1ccc2sc(N(CCCn3ccnc3)C(=O)c3ccco3)nc2c1C | 970
Nc1nccc2ccc(-c3cccnc3)cc12 | 420
NC(=NCc1ccc(Cl)c(Cl)c1)NC(=NCCCCCCN=C(NC(N)=NCc1ccc(Cl)c(Cl)c1)N1CCCCC1)N1CCCCC1 | 570
c1ccc2c(C3CCN(CCCCOc4ccc5c(c4)CCN(CC4CC4)CC5)CC3)c[nH]c2c1 | 980
CC(=O)N[C@H](C(=O)Nc1cccc(-c2ccc(-c3nc4c(C)cccc4[nH]3)s2)c1)C(C)C | 760
Cc1cc(Nc2ccccc2)nc(Nc2ccccc2C)n1 | 1040
CN(C)CCCOc1ccc(CCCCc2ccc(Cl)cc2C(=O)c2ccccc2)cc1 | 1030
Oc1cc2c(cc1CN1CCN(Cc3ccccc3F)CC1)CCC2 | 760
C[C@@H]1CN(c2ccnc3ccc(Sc4ccc(Oc5ccccc5)cc4)cc23)C[C@H](C)N1 | 780
NC(=O)c1sc(-n2cnc3ccccc32)cc1OCc1ccccc1[N+](=O)[O-] | 700
Cc1ccc(NC(=O)c2ccc(CN3CCCN(Cc4cccc(Cl)c4)CC3)cc2)cc1C | 1210
CCNc1cc(C(=O)N[C@@H](Cc2ccccc2)[C@H](O)CNC2CCCCC2)cc(N2CCCCS2(=O)=O)c1 | 170
O=C(NCCCCN1CCC(c2ccc3c(c2OCC(O)c2ccc(Cl)cc2)CCCC3)CC1)c1ccc(-c2ccc(C(F)(F)F)cc2)cc1 (stereo not given) | 1040
O=S(=O)(c1c(Cl)cc(Cl)cc1Cl)N1CCCCC(c2ccc(F)c(F)c2)=N1 | 590
Clc1ccc(OCc2ccccc2)c(-c2nc(-c3nc4ncc(Br)cc4[nH]3)cs2)c1 | 210
CC(C)c1ccc(Cn2cc(-c3ccncc3)c3cc(OCc4ccccc4)ccc32)cc1 | 710
CCCC(CC)n1ccc2c3c(N)nc(N)nc3ccc21 (stereo not given) | 10
Cc1cc(N(C)C2CCN(CC3CCCCC3)C2)nc(Nc2ccc(Br)cc2)n1 (stereo not given) | 700
Cc1cc2ncn(-c3nccc(NCc4ccc(F)cc4)n3)c2cc1C | 890
COc1ccc2nccc([C@@H](O)CN3CCC(NCc4cc5cc(Cl)ccc5[nH]4)CC3)c2c1 | 130

SMILES | IC50 [nM]
CCCc1cc(=O)[nH]c(-n2nc(C)cc2NC(=O)c2cc3ccccc3o2)n1 | 1110
C#CC(C)(CO)N1CCCC1 (stereo not given) | 380
CCCCNCc1cc(Cl)c2ccccc2c1O | 460
OCC1CCN(Cc2ccc(-c3cccc(-c4nc5ccc(C(F)(F)F)cc5[nH]4)c3)cc2)CC1 | 480
COc1ccc(CC(Cc2ccc(OC)cc2)NCC(O)c2cccc(Cl)c2)cc1 (stereo not given) | 160
CCCCCC(=O)N1CCOC(CCN2CCc3c(c4ccccc4n3C)C2)(c2ccc(Cl)c(Cl)c2)C1 (stereo not given) | 980
COc1ccccc1/C=C/C(=O)NCCC1CCN(CCCCCNC(=O)/C=C/c2ccc(Cl)c(Cl)c2)CC1 | 810
CC(C)CNCc1ccc(-c2cccc(CNc3ccc4ncccc4c3)c2)cc1 | 910
O=C(NCc1ccc(Cl)c(Cl)c1)c1ccc(C2CCN(Cc3ccc4nc[nH]c4c3)CC2)cc1 | 960
COc1cc2nc(NCCCO)nc(Nc3ccc(Oc4ccccc4)cc3)c2cc1OC | 140
CCC(=O)OC(CCN(CC)CC)(c1ccccc1)c1ccccc1 | 370
CC(C)CNCc1cccc(-c2ccccc2CNC2CCN(Cc3ccccc3)CC2)c1 | 580
COc1ccccc1CCNc1nc(C)cc(N[C@@H](CC(C)C)C(=O)NCCc2ccccc2)n1 | 720
c1ccc2cc3c(NCCN4CCOCC4)ccnc3cc2c1 | 170
COc1cccc(C2CCN(CCN3CCC(NC(=O)c4ccc(-c5ccc(C(F)(F)F)cc5)cc4)CC3)CC2)c1 | 200
CC[C@H]1CN2CC[C@@H]1C[C@H]2[C@H](O)c1cc(N2CCC(N3CCCCC3)CC2)nc2ccc(OC)cc12 | 270
CCn1c(-c2nonc2N)nc2c(-c3cccc(NC(=O)Nc4cccc(C#N)c4)c3)ncc(OCCCN)c21 | 670
Cc1[nH]c(-c2ccc(F)cc2)cc1C(=O)NC1CCN(Cc2ccccc2)CC1 | 1130
O=C(NCCN1CCOCC1)c1ccc(N2CCC(Oc3ccc4ccccc4c3)CC2)nc1 | 760
CCN(CC)CCN(Cc1ccc(-c2ccc(C(F)(F)F)cc2)cc1)C(=O)Cn1c(CCc2cc(F)cc(F)c2)nc(=O)c2ccccc21 | 980
Cc1cccc(NC(=O)Nc2ccc(I)c(OCCN(C)C)c2)c1C | 730
COc1ccc2nccc([C@@H](O)CN3CCC(NCCNc4ccccn4)CC3)c2c1 | 740
COc1ccc(Nc2nc(NC3CCN(Cc4ccccc4)CC3)cc(-c3ccncc3)n2)cc1 | 990
Cn1nc(-c2ccc(CNC3CCc4ccccc43)cc2)c2cnc(NCCN3CCCC3)nc21 (stereo not given) | 1350
COc1ccc(-c2cnc3ccc(N4CCCC4)nn23)cc1OC | 770
